Reference: patent US20240261474A1, “BIODEGRADABLE TISSUE SCAFFOLD WITH SECONDARY MATRIX TO HOST WEAKLY ADHERENT CELLS” (THE U.S.A., as represented by the Secretary, Department of …, priority 2021, published 2024)
Entries after “also recorded” stand apart in the source; their conditions may differ.

Tests used:
Format in all cases: cell-based, human
[1] = system: iPSC-RPE; assay: Brightfield imaging of RPE pigmentation; conditions: compared to DMSO-treated iPSC-RPE, AGN 193109 0.2 μM, endo-IWR-1 4 uM
Experimental: (§1) Brightfield imaging was used to determine RPE pigmentation defects, while hematoxylin and eosin (H&E) staining was valuable to inspect gross morphologic alterations of the monolayer. A section of transwell membrane was cut and mounted on a glass slide for brightfield imaging. Pigmentation levels were preserved after ENDO-1-IWR and AGN 193109 treatments as compared to DMSO-treated iPSC-RPE.
(§2) AGN 193109 was used at 0.2 μM and endo-IWR-1 at 4 uM. Both drugs were dissolved in DMSO, so that the final concentration of DMSO was not more than 0.1%. The final concentration of DMSO control was 0.1%. The compounds were added in RPE maturation medium until cells were mature. Gross cell morphology was also analyzed (FIGS. 20B, 20D, and 20F, left image) to detect possible abnormalities. Fine intracellular structures were examined for alterations with transmission electron microscopy (TEM, FIGS. 20B, 20D, and 20F, right image).

[2] = system: iPSC-RPE; assay: Phenotypic characterization of selected drug treatments (TER, brightfield, H&E, TEM, SEM); conditions: for induced RPE phenotype: cell size and apical processes; for effect on iPSC-RPE health: verified by TER, brightfield, H&E and TEM
Description: Eleven compounds were selected for further phenotypic characterization based on their initial effect in RPE cell size. […] Because the macula is dominated by cones while the periphery is dominated by rods, RPE cells in these two different regions might be enriched in one of the two apical process structures. It was hypothesized that the phenotype of RPE apical processes will serve as an additional discriminatory factor, other than RPE morphometry.
(§3) Different techniques were used to study RPE morphologic features.
Starting at D21, iPSC-RPE were treated with the different compounds. At D40 immature RPE were enriched by negative selection, as per differentiation protocol, and seeded on transwells for maturation. iPSC-RPE were treated with the compounds for other 6 weeks until cells were fully mature (FIG. 1 and FIG. 11).

[3] = system: iPSC-RPE; assay: Hematoxylin and eosin staining, gross morphology of the monolayer; conditions: H&E, AGN 193109 0.2 μM, endo-IWR-1 4 uM
Experimental: as §1, §2

[4] = system: iPSC-RPE; assay: Shape metrics (cell area) of drug-treated fully mature iPSC-RPE on transwells; conditions: treated from D21 until fully mature; for iPSC-RPE area: transwells; for iPSC-RPE cell size compared with human RPE populations: reference P1 macular, P3 peripheral
Description: Segmentation Using Convolutional Network: A Convolutional Neural Network (CNN) algorithm was used to recognize RPE cell borders from images of samples labeled by immunofluorescence. The algorithm generates a binary mask of segmented RPE borders; and this output was manually corrected to provide the “right answer” on which the algorithm would learn. Once trained, the CNN algorithm was fed with images of fluorescently labeled RPE cells and the binary mask images that were generated become the input for the REShAPE software for cell shape analysis (FIG. 3).
Morphometric Analysis Using REShAPE: The binary segmentation produced by the CNN algorithm was transferred to REShAPE for cell shape analysis. REShAPE (Retinal Epithelium Shape and Pigment Evaluator) is a Fiji plugin for image analysis. For every cell in a field of view that has been successfully segmented, REShAPE provide quantification of more than 25 different shape metrics. The raw data was stored in a spreadsheet to allow for statistical analysis. In addition, the software created images of segmented cells for every metric analyzed, where every cell is color-coded according to the raw values (FIG. 4). The color-coded images display the location of the cells analyzed. The shape metrics were analyzed with the software to give measurements of cell dimensions, such as area and perimeter, measurements of elongation, such as length of major and minor axis, and measurements of cell regularity, such as hexagonality score and number of neighbors. The analysis was performed in pixel units or μm, as far as the pixel to μm conversion is provided. The analysis of data and the graphs have been done using R software (“R Core Team (2018). R: A language and environment for statistical computing. R Foundation for Statistical Computing, Vienna, Austria. URL https://www.R-project.org/”). The R packages “plyr” and “ggplot2” have been use for data handling and plotting respectively (Wickham, 2009, 2011). The Dunnett's test, a method for post hoc pairwise multiple comparisons, was used to compute statistical analysis by comparing several treatment groups to control groups. A 95% family-wise confidence level has been used. […] Shapiro-Wilk's test and one-way ANOVA were carried out using the R package “dplyr” (Wickham et al., dplyr: A Grammar of Data Manipulation. Retrieved from https://cran.r-project.org/package=dplyr, 2019), while Q-Q plots were drawn using the R package “ggpubr” (Kassambara, ggpubr: “ggplot2” Based Publication Ready Plots. Retrieved from cran.r-project.org/package=ggpubr, 2020). […]
Subsequently, shape metrics were analyzed to confirm the effect of the drugs on cell areas. […]

[5] = system: iPSC-RPE; assay: Scanning electron microscopy of apical processes; conditions: SEM; for apical processes average transversal length / apical processes average transversal width: transversal section; for type of apical processes: DMSO control shows both petal and finger-like
Experimental: FIG. 11. Defining petal (undulated) and finger-like apical processes. The transversal section of apical processes was measured to precisely define their shape. Petal-like apical processes, obtained by treating RPE cells with AGN 193109, have an average transversal length of 1.68 μm (length min 0.5, max 4 μm) and width of 0.20 μm (width min 0.1, max 1 μm). The petal-like apical processes are also wavy along their length. The width of the undulation ranges from 0.2 to 2 μm. Finger-like apical processes, obtained by treating RPE cells with endo-IWR-1, are cylindrical and have the same average transversal length and width of 0.23 μm (min 0.1, max 1 microns). An example of how measurements of the apical processes was done is shown for each type of apical processed.
as §3
Finally, transmission electron microscopy (TEM) was used to detect fine morphological alterations, whereas scanning electron microscopy (SEM) was essential to study modifications in apical processes structures. […] In DMSO-treated iPSC-RPE we found both types of apical processes, petal and finger-like.

| SMILES | pigmentation levels [1] | induced RPE phenotype [2] | effect on iPSC-RPE health [2] | gross cell morphology [3] | iPSC-RPE area [4] | iPSC-RPE cell size compared with human RPE populations [4] | apical processes average transversal length [5] | apical processes average transversal width [5] | type of apical processes [5] | pigmentation levels ([1]; listed as Endo-IWR-1) | pigmentation levels ([1]; listed as endo-IWR-1) | gross cell morphology ([3]; listed as endo-IWR-1) | type of apical processes ([5]; listed as Endo-IWR-1) |
| --- | --- | --- | --- | --- | --- | --- | --- | --- | --- | --- | --- | --- | --- |
| Cc1ccc(C2=CCC(C)(C)c3ccc(C#Cc4ccc(C(=O)O)cc4)cc32)cc1 [AGN 193109, 4-[2-[5,6-Dihydro-5,5-dimethyl-8-(4-methylphenyl)-2-naphthalenyl]ethynyl]-benzoic acid] | preserved; also recorded: did not alter pigmentation levels | induces a macular RPE phenotype | not disruptive of iPSC-RPE health; also recorded: did not affect the healthy RPE phenotype | no gross morphological alterations were detected; also recorded: nor did they affect gross or fine cell morphology | 161.8±149.7 μm^2 | comparable to the dimension of macular RPE population (P1); also recorded: shifts iPSC-RPE cell sizes toward macular RPE population (P1); also recorded: able to reproduce the cellular size of macular population (P1) and peripheral population (P3) respectively | 1.68 μm | 0.20 μm | enriched RPE cells with petal-like apical processes (with undulation); also recorded: enrich RPE cells with petal-like and finger-like apical processes, respectively |  |  |  |  |
| O=C(Nc1cccc2cccnc12)c1ccc(N2C(=O)C3C4C=CC(C4)C3C2=O)cc1 (stereo not drawn) [ENDO-1-IWR, 4-(1,3,3a,4,7,7a-Hexahydro-1,3-dioxo-4,7-methano-2H-isoindol-2-yl)-N-8-quinolinyl-Benzamide] | preserved | induces a peripheral RPE phenotype | not disruptive of iPSC-RPE health; also recorded: did not affect the healthy RPE phenotype | no gross morphological alterations were detected | 251.8±218.4 μm^2 | comparable to cells of peripheral RPE population P3; also recorded: increases cell sizes up to the dimensions of the peripheral RPE population P3; also recorded: able to reproduce the cellular size of macular population (P1) and peripheral population (P3) respectively; also recorded: increases RPE cell size to match human peripheral RPE population P3 | 0.23 μm | 0.23 μm | enriched uniquely by finger-like apical processes; also recorded: enrich RPE cells with petal-like and finger-like apical processes, respectively; also recorded: enriches these cells with finger-like apical processes | did not alter pigmentation levels | did not alter pigmentation levels | nor did they affect gross or fine cell morphology | enriched cells with finger-like apical processes |
